According to PubChem BioAssay AID602415 (The Scripps Research Institute Molecular Screening Center, 2012):
The source made the active and inactive calls.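 How the source made its calls: active means substrate turnover at or below 60%; inactive means substrate turnover above 60%.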

Molecular target: Diacylglycerol lipase-beta (Mus musculus) (UniProt Q91WC9)
Test: DAGLb inhibitors reducing SAG hydrolysis, biochemical, LC-MS, overexpressed mouse DAGLb (AID 602415)
Settings: HEK293T membranes overexpressing mDAGLb, at 10 µM, active compounds read low

Sequence of Diacylglycerol lipase-beta (Mus musculus) (Q91WC9 whole entry, looked up): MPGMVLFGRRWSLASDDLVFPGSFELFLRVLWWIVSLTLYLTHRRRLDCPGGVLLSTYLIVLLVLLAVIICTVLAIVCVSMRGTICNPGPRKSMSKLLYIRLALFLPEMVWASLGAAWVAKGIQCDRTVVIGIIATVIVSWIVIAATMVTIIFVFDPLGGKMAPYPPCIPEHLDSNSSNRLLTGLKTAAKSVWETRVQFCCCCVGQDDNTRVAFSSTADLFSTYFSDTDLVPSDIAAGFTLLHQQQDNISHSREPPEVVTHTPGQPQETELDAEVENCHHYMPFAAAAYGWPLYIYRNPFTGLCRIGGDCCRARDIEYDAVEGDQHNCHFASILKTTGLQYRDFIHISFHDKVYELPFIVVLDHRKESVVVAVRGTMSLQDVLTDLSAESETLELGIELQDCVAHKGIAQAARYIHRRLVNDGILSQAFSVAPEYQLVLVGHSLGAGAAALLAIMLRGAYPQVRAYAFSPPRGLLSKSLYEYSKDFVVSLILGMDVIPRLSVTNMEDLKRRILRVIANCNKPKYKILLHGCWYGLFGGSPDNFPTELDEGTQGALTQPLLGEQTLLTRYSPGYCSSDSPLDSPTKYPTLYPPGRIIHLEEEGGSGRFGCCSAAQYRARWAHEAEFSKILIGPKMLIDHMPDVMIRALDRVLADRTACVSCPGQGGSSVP

SMILES | substrate turnover
Cc1oc2cc([N+](=O)[O-])c(O)c([N+](=O)[O-])c2c1C(=O)c1ccc(Br)cc1 | 62% (inactive)
CC(=NNc1ccc(S(N)(=O)=O)cc1[N+](=O)[O-])c1ccc2c(c1)OCO2 | 64% (inactive)
Nc1ccc2c(c1)C(=O)c1cc(Cl)c(Cl)cc1-2 | 47%
CCC(=NNc1ccc([N+](=O)[O-])cc1[N+](=O)[O-])c1ccc(O)cc1 | 67% (inactive)
COc1ccc(S(=O)(=O)N2CCOCC2)cc1N=Nc1sc(N)nc1-c1ccccc1 | 97% (inactive)
COc1ccc(C2/C=C\CN(C(=O)c3ccc(C)cc3)[C@H](Cc3ccccc3)C(=O)N2Cc2ccc(F)cc2)cc1 (stereo partly specified) | 59%
Cc1ccc(C2C(/C=C3/SC(=S)NC3=O)=C(c3cccs3)Oc3ccccc32)cc1 (stereo unspecified) | 35%
NP(=O)(OCCCCc1ccccc1)Oc1ccccc1Cl (stereo unspecified) | 25%
CN(C)c1ccc(N=Nc2ccccc2C(=O)OCC(=O)NCC2CCCCC2)cc1 | 79% (inactive)
CC1(C)CC(=O)C2=C(C1)N=C1c3ccccc3C(=O)C1C2c1ccc(Cl)cc1 (stereo unspecified) | 82% (inactive)
Cn1cc(/C=C2\SC(=O)NC2=S)c2ccccc21 | 61% (inactive)
CCN(CC)c1ccc(N=Nc2nn(C)c(C)c2[N+](=O)[O-])cc1 | 68% (inactive)
CCSC1=NC(=O)/C(=C2/C=Cc3ccccc3N2CC)S1 | 100% (inactive)
Cc1cc(N=Nc2ccccc2C(=O)O)c(C)c(C)c1O | 89% (inactive)
CC(=O)Nc1ccc(/C=N/Nc2ccc(S(=O)(=O)Nc3ccccc3C(=O)O)cc2[N+](=O)[O-])cc1 | 84% (inactive)
O=C1C(=C(c2ccccc2)c2ccccc2)Nc2ccccc21 | 50%
CN(C)c1ccc(N=Nc2ccccc2C(=O)OCC(=O)Nc2ccccc2C(F)(F)F)cc1 | 67% (inactive)
O=C(NNc1c2ccccc2nc2ccccc12)c1ccc(O)cc1O | 79% (inactive)
COc1cc(/C=C2/C(=O)NN(c3ccc(C)c(Cl)c3)C2=O)cc([N+](=O)[O-])c1O | 43%
CCCCCCCCCCC[C@@H](C[C@@H]1OC(=O)[C@H]1CCCCCC)OC(=O)[C@H](CC(C)C)NC=O | 0%
CCOc1ccc(Nc2nnc(SCc3nc4ccccc4c(=O)[nH]3)s2)cc1 | 69% (inactive)
Nc1nc(-c2ccccc2)c(N=Nc2cccnc2)s1 | 53%

SMILES | substrate turnover
O=C(NNc1c2ccccc2nc2ccccc12)c1ccccc1O | 56%
COC(=O)c1ccccc1NCc1cc(=O)oc2cc(O)c(O)cc12 | 48%
Nc1nc(-c2ccccc2)c(N=Nc2cccc3ccccc23)s1 | 95% (inactive)
N#CC(C#N)=NNc1ccc([N+](=O)[O-])cc1 | 65% (inactive)
O=C(NN1C(=O)/C(=C/c2ccc(O)c([N+](=O)[O-])c2)SC1=S)c1ccccc1Cl | 59%
Cc1cc(N(CCO)CCO)ccc1N=Nc1cc(F)ccc1F | 69% (inactive)
CCCOc1ccc(C(=O)NNC(=S)NC(=O)c2cc(-c3ccc(Cl)cc3)nc3ccccc23)cc1 | 93% (inactive)
O=C(O)c1cc(S(=O)(=O)Nc2cc(Cl)ccc2Oc2ccccc2)ccc1O | 53%
CC1(C)CC(=O)C2=C(C1)c1c(ccc3ccccc13)NC2c1cc([N+](=O)[O-])cc([N+](=O)[O-])c1O (stereo unspecified) | 46%
O=C1c2ccccc2C(=O)c2c1cccc2N1CCCC1 | 79% (inactive)
Cc1[nH]n2c(=O)cc(-c3ccc([N+](=O)[O-])cc3)nc2c1-c1ccccc1 | 90% (inactive)
Nc1cc([N+](=O)[O-])cc2oc(-c3ccccc3)cc12 | 89% (inactive)
O=C(NNc1c2ccccc2nc2ccccc12)c1cc2ccccc2cc1O | 65% (inactive)
O=C1c2cccc(Cl)c2C(=O)c2c1cccc2N1CCCC1 | 52%
Nc1nc(-c2ccccc2)c(N=Nc2ccccc2Cl)s1 | 39%
COc1ccc(N/C=C2\C(=O)CCc3c2oc2cc(Cl)c(O)c(Cl)c32)cc1 | 16%
CCOc1cc(/C=C2\N=C(SCC)SC2=O)cc([N+](=O)[O-])c1OC(C)=O | 78% (inactive)
Cc1ccc(-n2[nH]c(C)c(C=NNc3ccc([N+](=O)[O-])cc3[N+](=O)[O-])c2=O)cc1C | 57%
CC(=O)c1c(C)oc2ccc(NS(=O)(=O)c3ccc(O)c(C(=O)O)c3)cc12 | 23%
O=C1CC(=C(c2ccccc2)c2ccccc2)C(=O)N1CCCCN1CCN(c2cccc(Cl)c2)CC1 | 26%
COc1cccc(C(=O)NNc2c3ccccc3nc3ccccc23)c1 | 71% (inactive)
CC1CC(C)CN(C(=O)c2ccc3c(c2NCCO)C(=O)c2ccccc2C3=O)C1 (stereo unspecified) | 78% (inactive)

SMILES | substrate turnover
C/C(C/C(C)=C1/SC(=S)NC1=O)=C1\SC(=S)NC1=O | 22%
Cc1ccc(Nc2nnc(SCc3nc4ccccc4c(=O)[nH]3)s2)cc1 | 87% (inactive)
N=C1C(c2nc3ccccc3s2)=C(O)CN1NC(=O)c1ccccc1[N+](=O)[O-] | 46%
CC(=O)c1ccc(N2CCN(c3ccc(C(F)(F)F)cn3)CC2)cc1 | 67% (inactive)
O=C1C(NS(=O)(=O)c2cccs2)=C(N2CCN(c3cccc(Cl)c3)CC2)C(=O)c2ccccc21 | 81% (inactive)
Cc1cc(N=Nc2ccccc2)c(NCC(O)C(O)C(O)CO)cc1C (stereo unspecified) | 69% (inactive)
COc1ccccc1N=Nc1nc(-c2ccccc2)c(-c2ccccc2)[nH]1 | 79% (inactive)
CCOc1ccc2c(c1)-c1c(ssc1=S)C(C)(C)N2 | 70% (inactive)
CCN(CCCNc1cc2c(c(N)c1S(=O)(=O)O)C(=O)c1ccccc1C2=O)c1ccccc1 | 80% (inactive)
O=C1S/C(=C\c2ccc(O)c([N+](=O)[O-])c2)C(=O)N1c1ccccc1Cl | 76% (inactive)
O=[N+]([O-])c1ccc(N2CCN(c3ccccc3)CC2)cc1 | 91% (inactive)
COc1ccc(C=NNc2ccc(C(F)(F)F)cc2[N+](=O)[O-])cc1O | 76% (inactive)
CCOC(=O)/C(C#N)=C/C=C1\C=Cc2ccccc2N1CC | 51%
COc1cc(/C=C2\SC(=O)N(c3ccccc3Cl)C2=O)cc([N+](=O)[O-])c1O | 61% (inactive)
CCN(Cc1ccccc1)c1ccc(N=Nc2nn(C)c(C)c2[N+](=O)[O-])cc1 | 97% (inactive)
O=[N+]([O-])c1ccccc1NN=Cc1c[nH]c2ccccc12 | 80% (inactive)
CC(C1SC(=S)NC1=O)C1SC(=S)NC1=O (stereo unspecified) | 67% (inactive)
Cc1ccc(NC2=C(Cl)C(=O)OC2OC(=O)c2ccco2)cc1C (stereo unspecified) | 39%
CC(=O)C1=C(O)C(=O)N(c2cc(C(C)(C)C)on2)C1c1ccc(Br)cc1 (stereo unspecified) | 26%
CCOc1ccccc1N1CCN(C2=C(NS(=O)(=O)c3cccs3)C(=O)c3ccccc3C2=O)CC1 | 79% (inactive)
CN(C)c1ccc(N=Nc2ccc(S(=O)(=O)O)cc2)c2ccccc12 | 66% (inactive)
O=S(=O)(O)c1cccc(N=Nc2c(O)ccc3ccccc23)c1 | 59%

SMILES | substrate turnover
Nc1ccc(N=Nc2ccccc2)c2cccnc12 | 88% (inactive)
O=[N+]([O-])c1ccc(C=NNc2ccc3ccccc3c2)o1 | 67% (inactive)
COC(=O)C1=C(C(=O)OC)SC(=C2C(=S)C(C)(C)N(C(=O)C3CC3)c3ccccc32)S1 | 95% (inactive)
Nc1nc(-c2ccccc2)c(N=Nc2ccc(Cl)cc2)s1 | 23%
O=C(O)COc1ccccc1C=NNc1ccc(S(=O)(=O)Nc2ccc(Cl)cc2)cc1[N+](=O)[O-] | 50%
CC1(C)CCCN(C(=O)c2ccc3c(c2NCCO)C(=O)c2ccccc2C3=O)C1 | 20%
c1ccc(N=NC2=NN(c3ccccc3)CS2)cc1 | 61% (inactive)
O=[N+]([O-])c1ccc(N2CCN(c3ccc(F)cc3)CC2)cc1 | 74% (inactive)
CC1=NN(c2ccccc2)C(=O)/C1=C\C=C1/N(C)c2ccccc2C1(C)C | 74% (inactive)
COc1ccccc1C=NNc1ccccc1[N+](=O)[O-] | 94% (inactive)
CN(C)c1ccc(N=Nc2ccc(S(N)(=O)=O)cc2)cc1 | 59%
NS(=O)(=O)c1ccc(N=Nc2c(O)ccc3ccccc23)cc1 | 57%
COc1cc(C=NNc2ccccc2[N+](=O)[O-])cc(OC)c1O | 60% (inactive)
O=C(NC(C(=O)NN=Cc1c2ccccc2cc2ccccc12)c1n[nH]c(=O)c2ccccc12)c1ccccc1 (stereo unspecified) | 64% (inactive)
CCCN1C(=O)/C(=C2/C=Cc3ccccc3N2CC)SC1=S | 68% (inactive)
O=C(NC(C(=O)NN=Cc1cccc2ccccc12)c1n[nH]c(=O)c2ccccc12)c1ccccc1 (stereo unspecified) | 49%
NC(=O)CC(NC(=O)c1ccc(Br)cc1)c1ccc(NCCc2ccc(F)cc2)c([N+](=O)[O-])c1 (stereo unspecified) | 70% (inactive)
CC1=NN(c2ccccc2)C(=O)C1N=Nc1ccc(N)cc1 (stereo unspecified) | 65% (inactive)
Cc1ccc(C)c(NC(=O)/C(C#N)=C/c2cn(CC(=O)NCc3ccco3)c3ccccc23)c1 | 93% (inactive)
Cc1ccc(-n2c(O)c(/C=N/Nc3ccc(S(=O)(=O)N4CCOCC4)cc3[N+](=O)[O-])c3ccccc3c2=O)c(C)c1 | 56%
